Experimental data from US4690935A, “Inhibition of tumor growth and metastasis with calcium channel blocker compounds” (Wayne State University, priority 1983, dated 1987).

What was measured:
[1] = tested on: B16a Tumor Cells; assay: "Experimental" metastasis (lung colonies) induced by tail vein injection of B16a tumor cells; format: in vivo, mouse; settings: oral, mice; for % of Control (mean number of metastatic lesions on lung surface): 1 h before and 1 h after tumor cells, 21 days, x ± SEM, n = 12, control = 100%; for reduction of lung colonies / tail vein metastasis (in words): tail vein injection of B16a
Source text: B16 amelanotic melanoma (B16a) and Walker 256 L-Pam carcinosarcoma were obtained from the Division of Cancer Treatment, Animal and Human Tumor Bank, Mason Research Institute, Worcester, Mass. Tumors were passaged four times after receipt in syngeneic C57BL/6J male mice (B16a) or allogenic Sprague Dawley rats (Walker 256 L-Pam). Passaging involved subcutaneous implantations of tumor pices (diced to approximately 2×2 MM) into the right auxiliary region using a 18 gauge needle. Mice weighing approximately 20 grams (4 to 5 weeks old) were used to passage the B16a cell line and female rats were used to passage the Walker 256 L-Pam cell line. Animals were housed under identical conditions of temperature, feeding, photoperiod, etc. The transplanted tumors were allowed to grow for approximately 14 days following implantation.
The B16a tumor cells, obtained by the previously described procedure of tumor dispersion and tumor cell elutriation were used to test the antimetastatic effect of BAY e 9736.
A 40 mg portion of BAY e 9736 was dissolved in 1 ml of polyethylene glycol (PEG-400). This stock solution was diluted 1:5, 1:10, 1:50 and 1:1000 with PEG-400. C56BL/6J mice weighing an average of 20 grams were injected orally with 0.1 ml of the diluted BAY e 9736 one hour before and one hour after challenge with tumor cells. One hour after the first oral administration of BAY e 9736, the mice were injected via the tail vein with a 3×10^4 B16a tumor cell suspension in 0.05 ml prepared as described previously. The control and treated mice were kept under identical conditions of temperature, feeding) photoperiod, etc. The mice were sacrificed 21 days after tail vein injection of the tumor cells and the lungs were removed, fixed in Bouin's solution and visible bilateral metastasis counted.

[2] = tested on: B16a Tumor Cells; assay: In vitro proliferation of B16a tumor cells; format: cell-based, mouse; settings: for effect on tumor cell proliferation (in words): B16a cells, 10-40 micrograms/ml, five day assay
Method: Proliferation studies were designed to measure the effects of BAY e 9736 on the proliferation of B16 a tumor cells. B16a tumor cells were plated into T-25 flasks (4×10^4 cells/flask) and allowed to grow at 37° C. for 16 hours. The media was removed from the flasks and plating efficiency was determined using a Coulter counter. Replacement media was added to the flasks, which were allowed to incubate for 24 hours. After the 24 hour incubation, 10 microliters of control (media), DMSO, or BAY e 9736 in DMSO (40 mg/ml stock) was added to the flasks. Media replacement with and without BAY e 9736 were performed every 24 hours for 4 consecutive days. Control flasks (3) were terminated every day of the proliferation study with 4 terminated on the final day.
A 40 mg aliquot of BAY e 9736 was dissolved in 1 milliliter dimethyl sulfoxide (DMSO). Aliquots of this 40 mg/ml stock were diluted with DMSO to final concentrations of 20 and 10 mg/ml. At day two and each successive day, 10 microliter aliquots of 40, 20, and 10 mg/ml BAY e 9736 were added once a day to the new media of flasks containing proliferating B16a tumor cells as previously described.

[3] = tested on: B16a Tumor Cells; assay: 3H-thymidine incorporation into DNA of cultured B16a tumor cells; format: cell-based, mouse; settings: for effect on 3H-thymidine incorporation (in words): B16a tumor cell DNA
Method: ^3 H-thymidine incorporation studies were designed to measure the effects of BAY e 9736, nimodipine on the incorporation of ^3 H-thymidine into the DNA of B16a tumor cells. One ml of cultured B16a tumor cells (in MEM+10% fetal calf serum) at 1×10^5 cells/ml are placed into plastic incubation tubes. The cells are incubated for 15 minutes at 37° C. in the presence of five microliters of dilutent (DMSO, dimethyl sulfoxide) alone or dilutent containing BAY e 9736. After 15 minutes, which is considered the preincubation period, the cells are incubated for one hour (at 37° C.) in the presence of one microcurie (per ml) ^3 H-thymidine. The assay is terminated by the addition of one milliliter of cold trichloroacetic acid, TCA, (6% w/v). The cells are centrifuged at 10,000×g ×4 minutes. The supernatant is discarded. The resulting pellet is resuspended in one milliliter of TCA, vortexed and then repelleted by centrifugation at 10,000 ×g ×4 minutes. The supernatant is discarded. The pellets are resuspended in 100 microliters of tissue solubilizing fluid (NCS from Amersham Corporation) and incubated for 2 hours at 50° C. Fifty microliter aliquots of the solubilized pellets are transferred into plastic scintillation vials containing 3 milliliters of scintillation fluid (Econofluor, New England Nuclear), allowed to cool and dark adjust, and counted.
A variation of the previously described experiment was used to determine the effects of BAY e 9736 on a different parameter of tumor cell proliferation, the replication of deoxyribonucleic acid (DNA) as measured by the incorporation of ^3 H-thymidine into tumor cell DNA. B16a tumor cells were grown in T-75 flasks and removed using trypsin, as previously described for Walker 256 L-Pam tumor cells. The B16a cells are quenched, washed, and resuspended in media (MEM+10% fetal calf serum, FCS) to a concentration of 1×10^5 cells/ml. One milliliter of tumor cells are placed into 5 ml plastic incubation tubes, and five microliters of media, dilutant, or dilutant containing 8, 4, or 2 milligram/ml BAY e 9736 are added to appropriate tubes. The assay was run, terminated, and the B16a tumor cell DNA extracted and counted as previously described.
Protocol same as previously described except nifedipine (40 mg) is first dissolved in absolute ethanol (0.5 ml) and then diluted with PEG-400 (1.5 ml) to a final concentration of 20 mg/ml. One microliter of the 20 mg/ml nifedipine solution was added to one ml of B16a tumor cells (for final concentration of 20 micrograms/ml). Nimodipine was dissolved as previously described.

COCCOC(=O)C1=C(C)NC(C)=C(C(=O)OC(C)C)C1c1cccc([N+](=O)[O-])c1 (stereo not drawn) [BAY e 9736, 1,4-dihydro-2,6-dimethyl-4-(3' nitrophenyl)-pyridine-3-(beta-methyoxyethylester)-5-(isopropyl ester)]
% of Control (mean number of metastatic lesions on lung surface) ([1]; 0.2 mg/kg): 55 ± 5%
% of Control (mean number of metastatic lesions on lung surface) ([1]; 4.0 mg/kg): 60 ± 7%
% of Control (mean number of metastatic lesions on lung surface) ([1]; 20.0 mg/kg): 73 ± 13.7%
% of Control (mean number of metastatic lesions on lung surface) ([1]; 40.0 mg/kg): 74 ± 7.5%
reduction of lung colonies / tail vein metastasis (in words) [1]: effective in reducing the number of lung colonies at all levels examined
reduction of lung colonies / tail vein metastasis (in words) ([1]; listed as nimodipine): reduce metastasis induced by tail vein injection
effect on tumor cell proliferation (in words) [2]: inhibits tumor cell proliferation
effect on tumor cell proliferation (in words) ([2]; listed as nimodipine): decreases the rate of tumor cell growth over a five day assay period
activity at 10 µg/mL ([2]; Mus musculus, .01 mg/ml, drug readded once daily, x ± SEM, n = 4, read-out: % of Control Tumor Cell Number): 50 ± 5%
activity at 20 µg/mL ([2]; Mus musculus, .02 mg/ml, drug readded once daily, x ± SEM, n = 4, read-out: % of Control Tumor Cell Number): 25 ± 5%
activity at 40 µg/mL ([2]; Mus musculus, .04 mg/ml, drug readded once daily, x ± SEM, n = 4, read-out: % of Control Tumor Cell Number): 14 ± 3%
effect on 3H-thymidine incorporation (in words) [3]: inhibited the incorporation of ^3 H-thymidine into the tumor cell DNA
effect on 3H-thymidine incorporation (in words) ([3]; listed as nimodipine): decreases the rate of incorporation of ^3 H-thymidine into tumor cell DNA
activity at 10 µg/mL ([3]; Mus musculus, .01 mg/ml, 15 min preincubation, 1 hour incorporation, x ± SEM, n = 4, read-out: % of Control Tumor Cell Incorporation (3H-thymidine)): 77 ± 2.5%
activity at 20 µg/mL ([3]; Mus musculus, .02 mg/ml, 15 min preincubation, 1 hour incorporation, x ± SEM, n = 4, read-out: % of Control Tumor Cell Incorporation (3H-thymidine)): 56 ± 3.5%
activity at 40 µg/mL ([3]; Mus musculus, .04 mg/ml, 15 min preincubation, 1 hour incorporation, x ± SEM, n = 4, read-out: % of Control Tumor Cell Incorporation (3H-thymidine)): 38 ± 4%
